Assay results as given in publication PMC9681820, “A PDE10A inhibitor CPL500036 is a novel agent modulating striatal function devoid of most neuroleptic side-effects” (Frontiers in Pharmacology, 2022).
Read-outs that look alike come from different tables or passages of the source.

Columns and labels:
[1] = tested on: N-Methyl-D-aspartic acid receptor; assay: SafetyScreen44 radioligand binding; design: species or system rat; details: 1 μM
Description: (§1) The SafetyScreen44® assay was carried out by Eurofins (Poitiers, France) according to the service-provider’s protocol. CPL500036 (1 µM) was tested against a panel of […] potential off-targets proteins, including G protein-coupled receptors (GPCRs), transporters, ion channels, nuclear receptors kinases and other non-kinase enzymes, by use of a set of the binding assays.
(§2) Binding of CPL500036 was calculated as the percent binding inhibition of a radioactively labeled ligand specific for each target. Enzyme inhibition of CPL500036 was calculated as the percent inhibition of the activity of the control enzyme. “No interaction” was denoted if inhibition ≤ 25% of specific binding of the control. Determination of muscarinic acetylcholine receptor (M2) activity induced by CPL500036 (antagonism and agonism) was undertaken in human recombinant CHO cells by measurement of the intracellular cAMP level according to the service-provider’s protocol. IC50 (concentration causing a half-maximal inhibition of specific binding of the control) or EC50 (concentration causing a half-maximal response of specific binding of the control) and the Hill coefficient were determined by non-linear regression analysis of the competition curves generated with mean replicate values using Hill-equation curve fitting with software developed at Cerep (Celle-Lévescault, France).

[2] = tested on: benzodiazepine receptor (GABAA); assay: SafetyScreen44 radioligand binding; design: species or system rat; details: 1 μM; agonist radioligand
Description: as §1, §2

[3] = tested on: calcium channel, voltage-dependent, L type; assay: SafetyScreen44 radioligand binding; design: species or system rat; details: 1 μM
Description: as §1, §2

[4] = tested on: voltage-gated sodium channels site 2; assay: SafetyScreen44 radioligand binding; design: species or system rat; details: 1 μM
Description: as §1, §2

[5] = tested on: α-dendrotoxin sensitive potassium channel; assay: SafetyScreen44 radioligand binding; design: species or system rat; details: 1 μM
Description: as §1, §2

Cyclooxygenase 2 = molecular target: T1, Cyclooxygenase 2 (Homo sapiens, UniProt P35354); assay: SafetyScreen44 enzyme inhibition; type: biochemical; details: read-out: % Inh (percent inhibition of the activity of the control enzyme)
T1 construct: purchased Eurofins Cerep (SafetyScreen44)
Description: as §1, §2

phosphodiesterase 4 = molecular target: T2, phosphodiesterase 4 (Homo sapiens, UniProt Q08499); assay: SafetyScreen44 enzyme inhibition; type: biochemical; details: read-out: % Inh (percent inhibition of the activity of the control enzyme)
T2 construct: purchased Eurofins Cerep (SafetyScreen44)
Description: as §1, §2

MTT cytotoxicity assay = type: cell-based; details: human, n = 3
Description: The cytotoxicity of CPL500036 was evaluated in human non-small-cell lung cancer (NCI-H1299, ATCC® CRL-5803™), human hepatocellular carcinoma (Hep G2 [HEPG2], ATCC® HB-8065™) and human neuroblastoma (SH-SY5Y, ECACC, 94030304) cells using the 3-(4,5-dimethylthiazol-2-yl)-2,5-diphenyltetrazolium bromide (MTT) assay (Invitrogen, Carlsbad, CA, United States). Cells were seeded in an appropriate complete growth medium (following manufacturer recommendations) onto 96-well plates. After overnight incubation (37°C, 5% CO2) the medium was replaced with fresh medium (100 μl/well) containing the desired concentration of CPL500036 (8 nM–60 μM, diluent factor = 3), positive control or vehicle control (1% dimethyl sulfoxide (DMSO)) followed by incubation for 72 h (37°C, 5% CO2). Then, 25 μl of filtered (filter size = 0.22 μm) MTT solution (12 mM) in phosphate-buffered saline (PBS) was added to each well, including blank control (medium without cells) followed by incubation for 2 h (37°C, 5% CO2). After that, formazan crystals were dissolved in DMSO (100 μl/well). The absorbance was measured at 540 nm (A540, substrate wavelength) and 690 nm (A690, reference wavelength) using an automatic microplate reader (Multiskan™ GO; ThermoFisher Scientific). The metabolic activity of cells in the presence of vehicle control (1% DMSO) was considered to be 100%, and we calculated the difference between A540 and A690. IC50 was calculated using Prism 7.05.

[6] = tested on: Salmonella typhimurium TA100; details: CPL500036 5000µg/plate, n=3
Wistar Han rats = assay: Glucose tolerance test; type: in vivo; details: 0.3 mg/kg, 1 mg/kg, and 3 mg/kg, p.o., 2 h before glucose bolus, n = 8
Description: Thirty-two male Wistar Han rats (∼10 weeks; Tri-City Academic Laboratory Animal Centre-Research and Services Centre, Medical University of Gdansk) were fasted for 16 h before experimentation. Animals underwent gavage with CPL500036 (0.3 mg/kg, 1 mg/kg or 3 mg/kg) or vehicle 2 h before receiving a glucose bolus (2 g/kg, i.p.; MilliporeSigma). Olanzapine (10 mg/kg) was used as an active comparator and delivered (s.c.) 30 min before the glucose bolus. Blood samples from the tail vein were collected from each rat right before drug administration, just before glucose loading as well as 15 min, 30 min, 60 min, 120 min, and 180 min after glucose administration. The glucose concentration was measured using a glucometer (Accu-ChekGo, Roche Diagnostics, Mannheim, Germany).

Beagle dogs = assay: In vivo cardiovascular safety, telemetry; details: 1.5 mg/kg, 10 mg/kg or 30 mg/kg, p.o., n = 4, free-base form
Description: Four male Beagle dogs who had been implanted previously with telemetry transmitter devices (Data Sciences, Saint Paul, MN, United States) were used. The number of animals corresponds to the standard approach used for such studies ([Smith et al., 2002]; [Authier et al., 2020]) and includes the accepted study sensitivity and ethics for use of nonrodent species ([ICH S7A Safety Pharmacology Studies for Human Pharmaceuticals, 2001]; [Smith et al., 2002]; [Authier et al., 2020]). The study consisted of four acquisition sessions using a crossover design with dosing intervals of ≥ 48 h. In each experimental session, each dog received (via oral gavage) a different treatment: either vehicle or CPL500036 (1.5 mg/kg, 10 mg/kg or 30 mg/kg). Cardiovascular safety was assessed on arterial blood pressure (systolic, diastolic and mean), heart rate (HR) and electrocardiography (RR interval, PR interval, QRS duration, uncorrected QT and corrected QT (QTc) for heart rate using van de Water correction) acquired continuously for ≥ 2 h before dosing, and for ≥ 24 h post-dose. All parameters were evaluated before and at 13-time points after treatment (15 min, 30 min as well as 1 h, 2 h, 3 h, 4 h, 5 h, 6 h, 8 h,12 h, 16 h, 20 h, and 24 h after dosing).

other PDE family members = tested on: other PDE family members; design: method as in Moszczyński-Pętkowski et al., 2018; details: at a concentration of 100x IC50; ref Moszczyński-Pętkowski et al., 2018; cited from earlier work
[7] = With metabolic activation (+S9 mix), 2AA 2µg/plate
[8] = Without metabolic activation (-S9 mix), SAZ 2µg/plate

T1 sequence (P35354 18-604): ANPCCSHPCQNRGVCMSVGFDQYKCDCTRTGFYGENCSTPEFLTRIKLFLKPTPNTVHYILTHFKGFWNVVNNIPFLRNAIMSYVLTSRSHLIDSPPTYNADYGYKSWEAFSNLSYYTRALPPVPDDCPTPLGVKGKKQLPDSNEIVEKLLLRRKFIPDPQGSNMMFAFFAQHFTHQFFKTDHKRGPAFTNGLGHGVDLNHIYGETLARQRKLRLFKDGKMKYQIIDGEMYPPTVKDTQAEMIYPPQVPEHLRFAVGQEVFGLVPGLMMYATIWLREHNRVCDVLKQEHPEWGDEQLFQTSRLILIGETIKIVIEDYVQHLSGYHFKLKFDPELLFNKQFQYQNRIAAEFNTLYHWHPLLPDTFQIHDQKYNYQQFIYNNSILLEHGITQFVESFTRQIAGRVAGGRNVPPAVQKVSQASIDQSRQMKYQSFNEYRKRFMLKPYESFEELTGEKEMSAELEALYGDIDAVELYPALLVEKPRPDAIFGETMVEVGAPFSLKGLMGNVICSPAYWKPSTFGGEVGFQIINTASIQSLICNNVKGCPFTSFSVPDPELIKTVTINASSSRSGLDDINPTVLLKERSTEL
T2 sequence (Q08499 whole entry): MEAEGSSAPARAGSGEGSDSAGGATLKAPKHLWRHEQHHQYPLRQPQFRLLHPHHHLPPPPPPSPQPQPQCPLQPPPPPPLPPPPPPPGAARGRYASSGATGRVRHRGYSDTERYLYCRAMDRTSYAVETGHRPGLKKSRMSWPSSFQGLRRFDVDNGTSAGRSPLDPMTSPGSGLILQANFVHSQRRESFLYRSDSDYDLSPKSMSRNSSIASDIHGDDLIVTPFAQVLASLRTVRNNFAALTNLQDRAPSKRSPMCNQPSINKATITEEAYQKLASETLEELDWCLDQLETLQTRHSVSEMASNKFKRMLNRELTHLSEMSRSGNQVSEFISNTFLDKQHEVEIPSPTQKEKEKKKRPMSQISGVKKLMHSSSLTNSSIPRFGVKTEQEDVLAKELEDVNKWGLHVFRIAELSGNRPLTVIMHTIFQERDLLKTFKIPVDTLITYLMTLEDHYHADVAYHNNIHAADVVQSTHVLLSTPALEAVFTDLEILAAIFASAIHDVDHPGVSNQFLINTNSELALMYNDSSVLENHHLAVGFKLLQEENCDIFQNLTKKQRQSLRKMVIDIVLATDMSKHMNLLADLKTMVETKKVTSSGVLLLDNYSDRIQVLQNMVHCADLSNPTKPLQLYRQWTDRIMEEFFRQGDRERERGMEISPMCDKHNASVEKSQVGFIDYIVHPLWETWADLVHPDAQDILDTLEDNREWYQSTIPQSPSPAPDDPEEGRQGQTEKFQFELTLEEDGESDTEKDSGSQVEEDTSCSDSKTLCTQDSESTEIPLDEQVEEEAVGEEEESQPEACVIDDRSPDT

Cc1ncc(C)n2nc(-c3ccn4cc(-c5ccccc5)nc4n3)nc12 [CPL500036, 7-[5,8-Dimethyl-(1,2,4)triazolo (1,5-a)pyrazin-2-yl]-2-phenylimidazo (1,2-a) pyrimidine]
% Inh (% inhibition of control specific binding) [1]: 4.4%
% Inh (% inhibition of control specific binding) [2]: −27.7%
% Inh (% inhibition of control specific binding) [3]: −7.2%
% Inh (% inhibition of control specific binding) [4]: −1.3%
% Inh (% inhibition of control specific binding) [5]: −10.2%
inhibition at 1 µM (Cyclooxygenase 2): -0.4%
inhibition at 1 µM (phosphodiesterase 4): 0.8%
IC50 at 72 h (MTT cytotoxicity assay; HepG2 cells, HepG2, 72 h): > 60 µM
IC50 at 72 h (MTT cytotoxicity assay; NCI-H1299 cells, H1299, 72 h): > 60 µM
IC50 at 72 h (MTT cytotoxicity assay; SH-SY5Y cells): > 60 µM
Mutation rate [6, 7]: 0.82
Revertants Mean±SD [6, 7]: 62.3±9.02
Mutation rate [6, 8]: 1.02
Revertants Mean±SD [6, 8]: 66.3±1.08
effect on the glucose level, glucose-tolerance test (Wistar Han rats): has no effect on the glucose level
electrocardiography parameters (particularly QTcv and QRS duration) (Beagle dogs): Noticeable alterations in any of the electrocardiography parameters analyzed (particularly QTcv and QRS duration) were not observed
heart rate (Beagle dogs): significant differences were not seen compared with the vehicle control group
systolic, diastolic and mean blood pressures (Beagle dogs): Remarkable variations in systolic, diastolic and mean blood pressures were not recorded
inhibition of other PDE family members (other PDE family members): didn’t inhibit other PDE family members
